Measurements published in patent publication US6630338B2, “Removing deacetylase contaminant from cephalosporin C acylase using cationic surfactant” (Fujisawa Pharmaceutical Co., Ltd., priority 1996, dated 2003).

Assays:
deacetylase = assay: Residual contaminant deacetylase activity after addition of surfactant (deacetyl 7-ACA produced from GL7-ACA); format: biochemical; details: for residual activity (deacetylase): room temperature 16 hours, relative to activity before addition as 100
Procedure: (§1) Mutant CC acylase N-176 producing E. coli JM 109 (PCCN 176-2) FERM BP-3047 was cultured according to the method disclosed in Example 3 of Japanese Patent Unexamined Publication No. 584078 and the cells were harvested by centrifugation. The obtained cell pellets were disrupted with a homogenizer and soluble protein component was extracted with water, which was followed by centrifugation to remove debris, whereby a crude extract solution was obtained.
(§2) Polyethyleneimine was added to the crude extract solution obtained in the above-mentioned (1) to allow precipitation of the nucleic acid, which was followed by centrifugation to recover supernatant. This supernatant was applied to DEAE column equilibrated with phosphate buffer (pH 7.0), washed with water and eluted with 0.2M-NaCl. […] The activities of CC acylase and deacetylase in each sample before and after the addition of the surfactant were measured and the changes thereof were examined. The enzyme activity was calculated by quantitatively determining 7-ACA and deacetyl 7-ACA produced from GL7-ACA as a substrate.

CC acylase = assay: Residual CC acylase activity after addition of surfactant (7-ACA produced from GL7-ACA); format: biochemical, Pseudomonas; details: for residual activity (CC acylase): room temperature 16 hours, relative to activity before addition as 100
Procedure: as §1, §2

[1] = surfactant addition concentration 0.1%
[2] = surfactant addition concentration 0.3%
[3] = surfactant addition concentration 0.5%
[4] = surfactant concentration 0.1-0.3%

| Molecule | residual activity (deacetylase) (deacetylase; [1]) | residual activity (deacetylase) (deacetylase; [2]) | residual activity (deacetylase) (deacetylase; [3]) | residual activity (CC acylase) (CC acylase; [1]) | residual activity (CC acylase) (CC acylase; [2]) | residual activity (CC acylase) (CC acylase; [3]) | activity of contaminant deacetylase (deacetylase; [4]) | removal of deacetylase (deacetylase; surfactant concentration 0.5%) | CC acylase residual activity (CC acylase; [4]) [%] |
| --- | --- | --- | --- | --- | --- | --- | --- | --- | --- |
| CCCCCCCCCCCC[N+](C)(C)C.[Cl-] [Cation BB, dodecyltrimethyl ammonium chloride] | 55 | 45 | 5 | 100 | 100 | 85 | – | – | – |
| alkyl(palm)trimethyl ammonium chloride [Cation FB] | 55 | 40 | 1 | 100 | 100 | 80 | – | – | – |
| polyoxyethylenesorbitan monooleate [Nonion TO-221] | 50 | 50 | 45 | 100 | 100 | 100 | – | – | – |
| alkyl glycine [Nissan Anon LG] | 60 | 50 | 30 | 100 | 100 | 95 | – | – | – |
| alkyl(palm)dimethylbenzyl ammonium chloride [Cation F2-50] | 5 | 1 | 0 | 95 | 92 | 70 | not more than 5% | removed nearly completely | ≥ 90 |
| polyoxyethylene octylphenyl ether [Nonion HS-210] | 50 | 50 | 45 | 100 | 100 | 100 | – | – | – |
